The subject of data set [1] is Lolium rigidum. The data set is described as follows: Post-emergence herbicidal activity against Lolium rigidum at 30 g a.i./ha measured after 20 days in presence of cloquintocet-mexyl. Type of data set: functional.
Data set [2] deals with Avena fatua. The data set is described as follows: Post-emergence herbicidal activity against Avena fatua at 30 g a.i./ha measured after 21 days in presence of 1% Merge adjuvant. It is filed as functional.
The test system of data set [3] is Setaria faberi. The experiment in a line: Post-emergence herbicidal activity against Setaria faberi (Giant Foxtail) at 30 g a.i./ha measured after 21 days in presence of 1% Merge adjuvant. Type of data set: functional.
The test system of data set [4] is Triticum aestivum. The experiment in a line: Phytotoxicity against Triticum aestivum cv. Remia (wheat) at 60 g a.i./ha applied post-emergence measured after 12 days in presence of cloquintocet-mexyl. It is filed as functional.
The test system of data set [5] is Triticum aestivum. The data set is described as follows: Phytotoxicity against Triticum aestivum cv. Remia (wheat) at 60 g a.i./ha applied post-emergence measured after 12 days. It is filed as functional.
Data set [6] deals with Triticum aestivum. The data set is described as follows: Phytotoxicity against Triticum aestivum cv. Arina (wheat) at 60 g a.i./ha applied post-emergence measured after 12 days in presence of cloquintocet-mexyl. Type of data set: functional.
The subject of data set [7] is Lolium rigidum. The data set is described as follows: Post-emergence herbicidal activity against Lolium rigidum at 30 g a.i./ha measured after 20 days. It is filed as functional.
Data set [8] relates to Avena fatua. The data set is described as follows: Post-emergence herbicidal activity against Avena fatua at 30 g a.i./ha measured after 20 days in presence of cloquintocet-mexyl. It is filed as functional.
Data set [9] relates to Triticum aestivum. The experiment in a line: Phytotoxicity against Triticum aestivum cv. Arina (wheat) at 60 g a.i./ha applied post-emergence measured after 12 days. Type of data set: functional.
In data set [10] the test system is Hordeum vulgare. The experiment in a line: Phytotoxicity against Hordeum vulgare cv. Fanfare (barley) at 60 g a.i./ha applied post-emergence measured after 12 days. Type of data set: functional.
Data set [11] concerns Avena fatua. The data set is described as follows: Post-emergence herbicidal activity against Avena fatua at 30 g a.i./ha measured after 20 days. It is filed as functional.
Data set [12] has as its system Lolium perenne. The data set is described as follows: Post-emergence herbicidal activity against Lolium perenne (perennial ryegrass) at 30 g a.i./ha measured after 21 days in presence of 1% Merge adjuvant. Type of data set: functional.
The test system of data set [13] is Alopecurus myosuroides. The data set is described as follows: Post-emergence herbicidal activity against Alopecurus myosuroides at 30 g a.i./ha measured after 21 days in presence of 1% Merge adjuvant. It is filed as functional.
The subject of data set [14] is Triticum aestivum. The experiment in a line: Phytotoxicity against Triticum aestivum (wheat) at 30 g a.i./ha applied post-emergence measured after 21 days in presence of 1% Merge adjuvant. It is filed as organism-based. The settings on record: in vivo, other, 504 h.
Data set [15] concerns Hordeum vulgare. The data set is described as follows: Phytotoxicity against Hordeum vulgare cv. Fanfare (barley) at 60 g a.i./ha applied post-emergence measured after 12 days in presence of cloquintocet-mexyl. It is filed as functional.
The test system of data set [16] is Hordeum vulgare. The data set is described as follows: Phytotoxicity against Hordeum vulgare (barley) at 30 g a.i./ha applied post-emergence measured after 21 days in presence of 1% Merge adjuvant. It is filed as organism-based. The settings on record: in vivo, other, 504 h.
Data set [17] deals with Setaria faberi. The experiment in a line: Post-emergence herbicidal activity against Setaria faberi (Giant Foxtail) at 500 g a.i./ha after 21 days. Type of data set: functional.
In data set [18] the test system is Avena fatua. The data set is described as follows: Post-emergence herbicidal activity against Avena fatua at 500 g a.i./ha after 21 days. It is filed as functional.
In data set [19] the test system is Setaria faberi. The experiment in a line: Post-emergence herbicidal activity against Setaria faberi (Giant Foxtail) at 2000 g a.i./ha after 21 days. Type of data set: functional.
The subject of data set [20] is Avena fatua. The data set is described as follows: Post-emergence herbicidal activity against Avena fatua at 2000 g a.i./ha after 21 days. It is filed as functional.
Data set [21] has as its system Lolium perenne. The data set is described as follows: Post-emergence herbicidal activity against Lolium perenne (perennial ryegrass) at 2000 g a.i./ha after 21 days. It is filed as functional.
The next data set deals with Apera spica-venti. The experiment in a line: Herbicidal activity against Apera spica-venti at 125 g a.i./ha in presence of cloquintocet-mexyl. Type of data set: functional, organism-based.
For another data set, the system named is Lolium multiflorum. The data set is described as follows: Herbicidal activity against Lolium multiflorum (Italian ryegrass) at 125 g a.i./ha in presence of cloquintocet-mexyl. Type of data set: functional, organism-based.
Data set [22] has as its system Avena fatua. The data set is described as follows: Herbicidal activity against Avena fatua at > / = 250 g a.i./ha in presence of cloquintocet-mexyl. Type of data set: functional, organism-based.
Data set [23] deals with Lolium perenne. The experiment in a line: Post-emergence herbicidal activity against Lolium perenne (perennial ryegrass) at 500 g a.i./ha after 21 days. Type of data set: functional.
Data set [24] concerns Alopecurus myosuroides. The data set is described as follows: Herbicidal activity against Alopecurus myosuroides at > / = 250 g a.i./ha in presence of cloquintocet-mexyl. Type of data set: functional, organism-based.
The nature of data set [25]: Half life of hydrolysis at pH 7 at 50 degC. Type of data set: ADME. Particulars: buffer.
For data set [26], the system named is Setaria faberi. The data set is described as follows: Post-emergence herbicidal activity against Setaria faberi (Giant Foxtail) at 250 g a.i./ha measured after 21 days in presence of 1% Merge adjuvant. Type of data set: functional.
Data set [27] concerns Hordeum vulgare. The experiment in a line: Phytotoxicity against Hordeum vulgare (barley) at 250 g a.i./ha applied post-emergence measured after 21 days in presence of 1% Merge adjuvant. Type of data set: organism-based. Particulars: in vivo, other, 504 h.
Data set [28] relates to Lolium perenne. The experiment in a line: Post-emergence herbicidal activity against Lolium perenne (perennial ryegrass) at 250 g a.i./ha measured after 21 days in presence of 1% Merge adjuvant. It is filed as functional.
Data set [29] deals with Triticum aestivum. The experiment in a line: Phytotoxicity against Triticum aestivum (wheat) at 250 g a.i./ha applied post-emergence measured after 21 days in presence of 1% Merge adjuvant. Type of data set: organism-based. Particulars: in vivo, other, 504 h.
Data set [30] concerns Alopecurus myosuroides. The experiment in a line: Post-emergence herbicidal activity against Alopecurus myosuroides at 250 g a.i./ha measured after 21 days in presence of 1% Merge adjuvant. It is filed as functional.
Data set [31] deals with Avena fatua. The experiment in a line: Post-emergence herbicidal activity against Avena fatua at 250 g a.i./ha measured after 21 days in presence of 1% Merge adjuvant. It is filed as functional.
The subject of data set [32] is Avena fatua. The data set is described as follows: Post-emergence herbicidal activity against Avena fatua at 500 g a.i./ha measured after 15 days. Type of data set: functional.
The test system of data set [33] is Triticum aestivum. The experiment in a line: Phytotoxicity against Triticum aestivum (wheat) at 500 g a.i./ha applied post-emergence measured after 15 days. It is filed as organism-based. Particulars: in vivo, other, 360 h.
Data set [34] has as its system Lolium perenne. The experiment in a line: Post-emergence herbicidal activity against Lolium perenne (perennial ryegrass) at 125 g a.i./ha measured after 21 days. Type of data set: functional.
Data set [35] relates to Hordeum vulgare. The experiment in a line: Phytotoxicity against Hordeum vulgare (barley) at 500 g a.i./ha applied post-emergence measured after 15 days. It is filed as organism-based. The settings on record: in vivo, other, 360 h.
The subject of data set [36] is Hordeum vulgare. The experiment in a line: Phytotoxicity against Hordeum vulgare (barley) at 125 g a.i./ha applied post-emergence measured after 21 days. It is filed as organism-based. Particulars: in vivo, other, 504 h.
The test system of data set [37] is Lolium perenne. The experiment in a line: Post-emergence herbicidal activity against Lolium perenne (perennial ryegrass) at 500 g a.i./ha measured after 15 days. Type of data set: functional.
For data set [38], the system named is Alopecurus myosuroides. The experiment in a line: Post-emergence herbicidal activity against Alopecurus myosuroides at 125 g a.i./ha measured after 21 days. It is filed as functional.
Data set [39] concerns Alopecurus myosuroides. The data set is described as follows: Post-emergence herbicidal activity against Alopecurus myosuroides at 500 g a.i./ha measured after 15 days. It is filed as functional.
For data set [40], the system named is Avena fatua. The experiment in a line: Post-emergence herbicidal activity against Avena fatua at 125 g a.i./ha measured after 21 days. Type of data set: functional.
Data set [41] relates to Triticum aestivum. The data set is described as follows: Phytotoxicity against Triticum aestivum (wheat) at 125 g a.i./ha applied post-emergence measured after 21 days. Particulars: in vivo, other, 504 h. Type of data set: organism-based.

Calls of active or inactive are those of the source. The calls are words filed in the database; no cut-off is given here.

Regarding `CCc1cc(C)cc(CC)c1C1C(=O)N2CCOCCN2C1=O` [PINOXADEN DIONE], the Activity was 90% in the data set with Lolium rigidum [1]; 100% in the data set on Avena fatua [2]; 90% in the data set with Setaria faberi [3]; 0% in the data set on Triticum aestivum [4]; 50% in the data set on Triticum aestivum [5]; 0% in the data set on Triticum aestivum [6]. Besides, the Activity in the data set with Lolium rigidum [7] is listed as 90%; with Avena fatua [8], 90%; in the data set with Triticum aestivum [9], 20%; with Hordeum vulgare [10], 40%; in the data set on Avena fatua [11], 90%; in the data set on Lolium perenne [12], 90%. In addition, the Activity is recorded as 100% in the data set on Alopecurus myosuroides [13], 10% in the data set with Triticum aestivum [14], 0% in the data set with Hordeum vulgare [15] and 0% in the data set on Hordeum vulgare [16].

Turning to `Cc1cc(C)c(-c2c(OC(=O)C(C)(C)C)n3n(c2=O)CCOCC3)c(C)c1`, the Activity is on record as 90% in the data set with Setaria faberi [17]; 90% in the data set with Avena fatua [18]; 100% in the data set with Setaria faberi [19]; 100% in the data set on Avena fatua [20]; 90% in the data set with Lolium perenne [21]; 90% in the data set on Lolium perenne [23]. The outcome in the data set on Apera spica-venti, in the data set with Lolium multiflorum, in the data set on Avena fatua [22] and with Alopecurus myosuroides [24] was Active.

In the case of `CCCCCCCS(=O)(=O)Oc1c(-c2c(CC)cc(C)cc2CC)c(=O)n2n1CCOCC2`, the Activity in the data set on Avena fatua [2] is given as 100%; in the data set on Setaria faberi [3], 90%; in the data set with Lolium perenne [12] it was 100%; in the data set with Alopecurus myosuroides [13], 80%; in the data set with Triticum aestivum [14] it was 20%; with Hordeum vulgare [16], 0%. In [25], this compound had a half-life of 3 h.

Turning to `Cc1cc(C)c(C2C(=O)N3CCOCN3C2=O)c(C)c1` (centres undefined), the Activity in the data set on Setaria faberi [26] came out at 90%; with Hordeum vulgare [27], 0%; in the data set on Lolium perenne [28], 90%; in the data set with Triticum aestivum [29] it was 20%; with Alopecurus myosuroides [30] it was 40%; in the data set with Avena fatua [31] it was 90%.

For the compound `Cc1cc(C)c(C2C(=O)N3CCCCN3C2=O)c(C)c1` [CGA-271312], the Activity in the data set on Avena fatua [32] was 90%; with Triticum aestivum [33], 60%; in the data set with Lolium perenne [34], 40%; in the data set on Hordeum vulgare [35] it was 90%; in the data set on Hordeum vulgare [36] it was 40%; in the data set with Lolium perenne [37], 90%. The Activity in the data set with Alopecurus myosuroides [38] is 40%; in the data set with Alopecurus myosuroides [39] it was 60%; in the data set on Avena fatua [40] it was 50%; in the data set with Triticum aestivum [41], 0%.

The half-life is how long it takes for the measured level to halve.

Source of the values: ChEMBL document CHEMBL3045393, “Aryldiones incorporating a [1,4,5]oxadiazepane ring. Part I: Discovery of the novel cereal herbicide pinoxaden” (Bioorg Med Chem, 2009).
